Results as given in US20250338850A1, “COMPOSITION AND METHOD FOR CONTROLLING WEEDS IN TURFGRASS” (SYNGENTA CROP PROTECTION AG, priority 2022, published 2025).

Legend:
[1] = system: St Augustinegrass variety 'Classic'; assay: Turfgrass injury trial on St Augustinegrass variety 'Classic'; format: in vivo
Excerpt: In a trial conducted on St Augustinegrass variety ‘Classic’, trifloxysulfuron (TSS) (Monument 75 WDG) was applied at 28 g ai/ha with and without metcamifen applied at 30, 75 and 150 g ai/ha. Two applications were applied on a 30-day interval (initial treatment and second treatment).

[2] = system: kikuyugrass; assay: Turfgrass injury trial on kikuyugrass; format: in vivo
Excerpt: In a kikuyugrass trial, trifloxysulfuron (TSS) (Monument 75 WDG) was applied solo at 28 g ai/ha and compared to a mixture of TSS and metcamifen (MET). The TSS-MET mixture contains trifloxysulfuron and meticamifen at a ratio of 20 to 75 g. Both Monument and the TSS-MET mixture were applied at 28 g ai/ha TSS.

Structure (SMILES) | injury at all rating dates ([1]; TSS 28 g ai/ha with metcamifen at 30, 75 and 150 g ai/ha, all rating dates) | trifloxysulfuron safening ([1]; metcamifen 30, 75 and 150 g ai/ha with TSS 28 g ai/ha) | trifloxysulfuron safening ([2]; TSS-MET mixture at 28 g ai/ha TSS) | injury, 9 DAIT (Initial Treatment) ([1]; TSS 28 g ai/ha, 9 days after the initial application) [%] | injury, 17 DAIT ([1]; TSS 28 g ai/ha, 17 days after the initial application) [%] | injury, 24 DAIT ([1]; TSS 28 g ai/ha, 24 days after the initial application) [%] | injury, 30 DAIT (Second Treatment) ([1]; TSS 28 g ai/ha, 30 days after the initial application) [%] | injury, 41 DAIT ([1]; TSS 28 g ai/ha, two applications, 30-day interval, 41 days after the initial application) [%] | injury, 51 DAIT ([1]; TSS 28 g ai/ha, two applications, 30-day interval, 51 days after the initial application) [%] | injury, 7DAA-2 ([2]; 28 g ai/ha TSS, 7 days after application 2) [a %] | injury, 14DAA-1 ([2]; 28 g ai/ha TSS, 14 days after application 1) [a %] | injury, 14 DAA-2 ([2]; 28 g ai/ha TSS, 14 days after application 2) [a %] | injury, 21 DAA-1 ([2]; 28 g ai/ha TSS, 21 days after application 1) [a %] | injury, 21 DAA-2 ([2]; 28 g ai/ha TSS, 21 days after application 2) [a %] | injury, 28 DAA-1 ([2]; 28 g ai/ha TSS, 28 days after application 1) [a %] | injury, 28 DAA-2 ([2]; 28 g ai/ha TSS, 28 days after application 2) [a %] | injury ([2]; trifloxysulfuron solo 28 g ai/ha, two applications on a 28-day interval) [%]
CNC(=O)Nc1ccc(S(=O)(=O)NC(=O)c2ccccc2OC)cc1 [Metcamifen, 2-Methoxy-N-[[4-[[(methylamino)carbonyl]amino]phenyl]sulfonyl]benzamide] | Less than 5% | almost complete trifloxysulfuron safening | almost complete trifloxysulfuron safening |  |  |  |  |  |  |  |  |  |  |  |  |  | 
COc1cc(OC)nc(NC(=O)NS(=O)(=O)c2ncccc2OCC(F)(F)F)n1 [TSS (Monument), N-[[(4,6-dimethoxy-2-pyrimidinyl)amino]carbonyl]-3-(2,2,2-trifluoroethoxy)-2-pyridinesulfonamide] |  |  |  | 71 | 85 | 98 | 85 | 80 | 81 | 40 | 22.5 | 40 | 37.4 | 40 | 34.9 | 32.5 | 40
